Assay results from publication PMC10590056, “Design and synthesis of cabotegravir derivatives bearing 1,2,3-triazole and evaluation of anti-liver cancer activity” (Frontiers in Pharmacology, 2023).
Several values for one entry are separate records, joined by “and”; a condition that tells them apart may be missing. Equal entries are not always repeated. Where two headings read alike, the source gives them in different places.

Experiments:
Assay type in all cases: cell-based
[1] = system: HepG2 cells; experiment: MTT assay for cell proliferation and cytotoxicity, HepG2; design: key to Inhibitory rate: inhibition rate = 1 - mean A490 sample/mean A490 control (fraction)
How it was run: (§1)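 Cells grown in DMEM with 10% FBS at 37 °C, 5% CO2, seeded at 10^5 cells/mL and exposed to KJ-5 or KJ-12 at 0–32 μM for 48 h. MTT added for 4 h, formazan dissolved in DMSO, A490 read; inhibition = (1 − sample/control A490) × 100%.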

[2] = system: KYSE-30 cells; experiment: MTT assay for cell proliferation, KYSE-30; design: key to Inhibitory rate: inhibition rate = 1 - mean A490 sample/mean A490 control (fraction)
How it was run: as §1

[3] = system: HepG2 cells; experiment: Annexin V-FITC/PI staining for cell apoptosis (flow cytometry); conditions: 24 h; for Proportion of apoptotic cells: Annexin-V/PI
Procedure: HepG2 cells were plated in a 6-well plate at a density of 5 × 10^6 cells/well and incubated for 24 h. Then, the original culture medium was replaced with 2 mL DMEM containing KJ-5 or KJ-12 (2, 4, and 8 μM) and incubated for 24 h. After incubation with KJ-5 or KJ-12, the cells were washed with cold PBS and then resuspended in 100 µL binding buffer at a concentration of 1 × 10^6 cells/mL. Then, 5 μl of FITC Annexin V and 5 µl of PI were added to the solution. The cells were gently vortexed and incubated for 15 min at room temperature (25°C) in the dark. Subsequently, 400 µL binding buffer was added to each tube, and the samples were analyzed by flow cytometry (BD Accuri™ C6 Plus) within 1 h.

[4] = system: p-H2AX in HepG2 cells; experiment: H2AX phosphorylation by immunofluorescence and Western blotting; conditions: HepG2, 24 h
Procedure: HepG2 cells were plated in laser confocal dishes (Nest, China), followed by the addition of KJ-5 or KJ-12 for 24 h. Then, 4% paraformaldehyde was added to each laser confocal dish for 20 min after rinsing with PBS. Before the goat serum was added to block for 1 h, 0.5% Triton X-100 was used to penetrate HepG2 for 30 min. Subsequently, the cells were incubated with p-H2AX (Cell Signaling Technology, MA, United States) at a 1:800 dilution at 4°C overnight. The cells were rinsed with PBS and incubated with Alexa Fluor 488 (Proteintech, Wuhan, China) at a 1:1000 dilution in dark at room temperature for 1 h. DAPI was used to stain the cell nucleus for 5 min. Then, the cells were rinsed with PBS before observing the cells under a laser confocal microscope (Nikon, Tokyo, Japan).
After being pretreated with either KJ-5 or KJ-12 at concentrations of 2, 4, or 8 μM for 24 h, the cells were harvested and lysed using an ice-cold cell lysis buffer from Beyotime Biotechnology (Shanghai, China). The proteins were mixed with a loading buffer and denatured by heating at 95°C–100°C for 5–10 min. Equal amounts of protein were loaded onto a 10% SDS-PAGE gel along with a molecular weight marker and separated by electrophoresis for 2 h. The separated proteins were transferred onto a PVDF membrane, which was blocked with 5% non-fat milk for non-specific binding sites on the membrane. […]

[5] = system: HepG2 cells; experiment: Transwell migration assay (without Matrigel); conditions: HepG2, 24 h treatment, vs control
Procedure: (§2) HepG2 cells were treated with either KJ-5 or KJ-12 for 24 h. Then, the cells were suspended and seeded into the upper chamber of a 24-well Transwell plate (Corning Inc., United States) in serum-free medium. The cells were cultured for 24 h at 37°C; a medium containing 20% FBS as a chemoattractant was added to the lower chamber. HepG2 cells that had invaded through the membrane were fixed with 4% paraformaldehyde for 20 min and stained with 0.1% crystal violet. Five random fields were then imaged and quantified using an inverted fluorescence microscope (Axio Observer3, Germany). To assess invasion, transwell assays were performed in a similar manner, with the exception of coating the upper chamber of the Transwell with 100 μL of diluted Matrigel solution per well.

[6] = system: HepG2 cells; experiment: Transwell invasion assay (Matrigel); conditions: HepG2, 24 h treatment, vs control
Procedure: as §2

[7] = system: Bcl-2, Bax, cleaved caspase-9, cleaved caspase-3, cleaved PARP in HepG2 cells; experiment: Western blot of mitochondrial apoptotic proteins
Procedure: After being pretreated with either KJ-5 or KJ-12 at concentrations of 2, 4, or 8 μM for 24 h, the cells were harvested and lysed using an ice-cold cell lysis buffer from Beyotime Biotechnology (Shanghai, China). The proteins were mixed with a loading buffer and denatured by heating at 95°C–100°C for 5–10 min. Equal amounts of protein were loaded onto a 10% SDS-PAGE gel along with a molecular weight marker and separated by electrophoresis for 2 h. The separated proteins were transferred onto a PVDF membrane, which was blocked with 5% non-fat milk for non-specific binding sites on the membrane. Then, the membrane was incubated with primary antibodies at 4°C overnight. Following incubation with the primary antibody, the membrane was incubated with HRP-conjugated goat anti-rabbit or goat anti-mouse IgG at 37°C for 1 h. Protein bands were visualized on the PVDF membrane using an ECL hypersensitive chemiluminescence solution and a Bio-Rad gel imaging and analysis system.

[8] = HepG2, fraction, per experiment

For `COc1c2n(cc(C(=O)Nc3cccc(-c4cn(-c5cc(C(F)(F)F)cc(C(F)(F)F)c5)nn4)c3)c1=O)C[C@H]1OC[C@H](C)N1C2=O` [KJ-5], the Inhibitory rate [1, 8] was 0.8445 and 0.8592 and 0.8525, the ODtreated/ODcontrol [1, 8] was 0.1555 and 0.1408 and 0.1475 and the inhibition at 4 µM ([1]; Homo sapiens, HepG2, liver cancer cells, 4 μM, read-out: Inhibition rate on liver cancer cells) was ~50%. The IC50 ([1]; Homo sapiens, HepG2, 48 h, MTT) was 4.29 ± 0.1 µM, the inhibition at 16 µM ([1]; Homo sapiens, preliminary screening, HepG2, 16 μM, 48 h, mean±SD, unit inferred, read-out: Inhibition rate (16μM), 48 h, HepG2) was 85.21 ± 0.73% and the IC50 ([2]; Homo sapiens, KYSE-30, 48 h, MTT, read-out: IC50 KYSE-30) was 8.51 ± 0.43 µM. For the same compound, the IC50 ([2]; Homo sapiens, KYSE-30, KYSE-30, one of three experiments, unit inferred, read-out: IC50, single experiment, KYSE-30) was 8.96 µM, the inhibition at 16 µM ([2]; Homo sapiens, preliminary screening, KYSE-30, 16 μM, 48 h, mean±SD, unit inferred, read-out: Inhibition rate (16μM), 48 h, KYSE-30) was 65.7 ± 0.91% and the ODtreated/ODcontrol ([2]; KYSE-30, first of three experiments) was 0.346. The Inhibitory rate ([2]; KYSE-30, given as fraction, first of three experiments) was 0.654, the Inhibitory rate ([2]; KYSE-30, given as fraction, second of three experiments) was 0.6669 and the Inhibitory rate ([2]; KYSE-30, given as fraction, third of three experiments) was 0.6494. The Inhibitory rate ([2]; KYSE-30, group 1 (concentration), fraction, single experiments) was 0.1205 and 0.156 and 0.08655, the ODtreated/ODcontrol ([2]; KYSE-30, group 1 (concentration), single experiments) was 0.8795 and 0.844 and 0.9135 and the Inhibitory rate ([2]; KYSE-30, group 2 (concentration), fraction, single experiments) was 0.2874 and 0.3093 and 0.2896. For the same compound, the ODtreated/ODcontrol ([2]; KYSE-30, group 2 (concentration), single experiments) was 0.7126 and 0.6907 and 0.7104, the Inhibitory rate ([2]; KYSE-30, group 4 (concentration), fraction, single experiments) was 0.3928 and 0.4106 and 0.3851 and the ODtreated/ODcontrol ([2]; KYSE-30, group 4 (concentration), single experiments) was 0.6072 and 0.5895 and 0.6149. For the same compound, the Inhibitory rate ([2]; KYSE-30, group 8 (concentration), fraction, single experiments) was 0.503 and 0.5061 and 0.5028, the ODtreated/ODcontrol ([2]; KYSE-30, group 8 (concentration), single experiments) was 0.497 and 0.4939 and 0.4972 and the Inhibitory rate ([2]; KYSE-30, group 16 (concentration), fraction, single experiments) was 0.6001 and 0.6158 and 0.6257. The ODtreated/ODcontrol ([2]; KYSE-30, group 16 (concentration), single experiments) was 0.3999 and 0.3842 and 0.3743, the Inhibitory rate ([2]; KYSE-30, group 32 (concentration), fraction, single experiments) was 0.6693 and 0.6807 and 0.6972 and the ODtreated/ODcontrol ([2]; KYSE-30, group 32 (concentration), single experiments) was 0.3307 and 0.3193 and 0.3028. The IC50 ([2]; KYSE-30, one of three experiments, unit inferred, read-out: IC50, single experiment, KYSE-30) was 8.11 µM and 8.46 µM, the ODtreated/ODcontrol ([2]; KYSE-30, second of three experiments) was 0.3331 and the ODtreated/ODcontrol ([2]; KYSE-30, third of three experiments) was 0.3506. The “Proportion of apoptotic cells” value ([3]; HepG2, 2 μM) was 21.8 ± 1.3%, the “Proportion of apoptotic cells” value ([3]; HepG2, 4 μM) was 30.9 ± 1.4% and the “Proportion of apoptotic cells” value ([3]; HepG2, 8 μM) was 52.7 ± 1.7%. The “Cell apoptosis (in words)” value ([3]; HepG2, 2, 4, 8 μM) was “significantly caused cell apoptosis in a concentration-dependent manner”, the “Expression of p-H2AX (DNA damage marker)” value [4] was “increased the expression of p-H2AX” and the “Migration of HepG2 cells (transwell without Matrigel)” value [5] was “significantly impaired”. For the same compound, the “Invasion of HepG2 cells (transwell with Matrigel)” value [6] was “significantly impaired”, the Bax levels ([7]; HepG2, 2, 4 or 8 μM, 24 h) was “increased” and the Bax/Bcl-2 ratio ([7]; HepG2, 2, 4 or 8 μM, 24 h) was “increased”. For the same compound, the Bcl-2 protein levels ([7]; HepG2, 2, 4 or 8 μM, 24 h) was “decreased”, the “Expression of cleaved PARP” value ([7]; HepG2, vs control) was “significantly increased” and the “Expression of cleaved caspase-3” value ([7]; HepG2, vs control) was “significantly increased”. The “Expression of cleaved caspase-9” value ([7]; HepG2, vs control) was “significantly increased”.
